According to patent US7659404B2, “Broad spectrum 2-(substituted-amino)-benzothiazole sulfonamide HIV protease inhibitors” (Tibotec Pharmaceuticals Ltd., priority 2001, dated 2010):
Like-named read-outs stand apart in the source and are kept apart here.

Experiments:
[1] = tested on: clinically isolated HIV strain N; experiment: Antiviral spectrum, cellular assay (fold resistance), strain N; assay type: cell-based; settings: FR=EC50(mutant strain)/EC50(HIV-1 strain LAI)
Procedure: (§1) HIV- or mock-infected MT4 cells were incubated for five days in the presence of various concentrations of the inhibitor. At the end of the incubation period, all HIV-infected cells have been killed by the replicating virus in the control cultures in the absence of any inhibitor. Cell viability is measured by measuring the concentration of MTT, a yellow, water soluble tetrazolium dye that is converted to a purple, water insoluble formazan in the mitochondria of living cells only. Upon solubilization of the resulting formazan crystals with isopropanol, the absorbance of the solution is monitored at 540 nm. The values correlate directly to the number of living cells remaining in the culture at the completion of the five day incubation. The inhibitory activity of the compound was monitored on the virus-infected cells and was expressed as EC50 and EC90. These values represent the amount of the compound required to protect 50% and 90%, respectively, of the cells from the cytopathogenic effect of the virus. The toxicity of the compound was measured on the mock-infected cells and was expressed as CC50, which represents the concentration of compound required to inhibit the growth of the cells by 50%. The selectivity index (SI) (ratio CC50/EC50) is an indication of the selectivity of the anti-HIV activity of the inhibitor.
(§2) Because of the increasing emergence of drug resistant HIV strains, the present compounds were tested for their potency against clinically isolated HIV strains harboring several mutations. These mutations are associated with resistance to protease inhibitors and result in viruses that show various degrees of phenotypic cross-resistance to the currently commercially available drugs such as for instance saquinavir, ritonavir, nelfinavir, indinavir and amprenavir.
(§3) As a measure of the broad spectrum activity of the present compounds, the fold resistance (FR) defined as FR=EC50(mutant strain)/EC50(HIV-1 strain LAI).

[2] = tested on: clinically isolated HIV strain A; experiment: Antiviral spectrum, cellular assay (fold resistance), strain A; assay type: cell-based; settings: FR=EC50(mutant strain)/EC50(HIV-1 strain LAI)
Procedure: as §1, §2, §3

[3] = tested on: clinically isolated HIV strain R; experiment: Antiviral spectrum, cellular assay (fold resistance), strain R; assay type: cell-based; settings: FR=EC50(mutant strain)/EC50(HIV-1 strain LAI)
Procedure: as §1, §2, §3

[4] = tested on: clinically isolated HIV strain M; experiment: Antiviral spectrum, cellular assay (fold resistance), strain M; assay type: cell-based; settings: FR=EC50(mutant strain)/EC50(HIV-1 strain LAI)
Procedure: as §1, §2, §3

[5] = tested on: clinically isolated HIV strain K; experiment: Antiviral spectrum, cellular assay (fold resistance), strain K; assay type: cell-based; settings: FR=EC50(mutant strain)/EC50(HIV-1 strain LAI)
Procedure: as §1, §2, §3

[6] = tested on: clinically isolated HIV strain D; experiment: Antiviral spectrum, cellular assay (fold resistance), strain D; assay type: cell-based; settings: FR=EC50(mutant strain)/EC50(HIV-1 strain LAI)
Procedure: as §1, §2, §3

[7] = tested on: clinically isolated HIV strain E; experiment: Antiviral spectrum, cellular assay (fold resistance), strain E; assay type: cell-based; settings: FR=EC50(mutant strain)/EC50(HIV-1 strain LAI)
Procedure: as §1, §2, §3

[8] = tested on: clinically isolated HIV strain L; experiment: Antiviral spectrum, cellular assay (fold resistance), strain L; assay type: cell-based; settings: FR=EC50(mutant strain)/EC50(HIV-1 strain LAI)
Procedure: as §1, §2, §3

[9] = tested on: clinically isolated HIV strain G; experiment: Antiviral spectrum, cellular assay (fold resistance), strain G; assay type: cell-based; settings: FR=EC50(mutant strain)/EC50(HIV-1 strain LAI)
Procedure: as §1, §2, §3

virus strain F (R13025) = experiment: microbe, parasite or virus in culture; assay type: cell-based, HIV; settings: FR=EC50(mutant strain)/EC50(HIV-1 strain LAI); strain F
Outline: (§4)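 First, MT4 cells were infected with HIV (or mock-infected) and incubated five days with varying inhibitor concentrations. Next, living cells were quantified via MTT reduction, measuring absorbance at 540 nm. Finally, EC50 was derived and fold resistance calculated relative to HIV-1 strain LAI.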

virus strain S (R13080) = experiment: microbe, parasite or virus in culture; assay type: cell-based, HIV; settings: FR=EC50(mutant strain)/EC50(HIV-1 strain LAI); strain S
Outline: as §4

[10] = tested on: clinically isolated HIV strain C; experiment: Antiviral spectrum, cellular assay (fold resistance), strain C; assay type: cell-based; settings: FR=EC50(mutant strain)/EC50(HIV-1 strain LAI)
Procedure: as §1, §2, §3

[11] = tested on: clinically isolated HIV strain P; experiment: Antiviral spectrum, cellular assay (fold resistance), strain P; assay type: cell-based; settings: FR=EC50(mutant strain)/EC50(HIV-1 strain LAI)
Procedure: as §1, §2, §3

[12] = tested on: clinically isolated HIV strain I; assay type: cell-based; settings: FR=EC50(mutant strain)/EC50(HIV-1 strain LAI)
Outline: as §4

[13] = tested on: clinically isolated HIV strain H; assay type: cell-based; settings: FR=EC50(mutant strain)/EC50(HIV-1 strain LAI)
Outline: as §4

[14] = tested on: clinically isolated HIV strain J; assay type: cell-based; settings: FR=EC50(mutant strain)/EC50(HIV-1 strain LAI)
Outline: as §4

[15] = tested on: clinically isolated HIV strain T; assay type: cell-based; settings: FR=EC50(mutant strain)/EC50(HIV-1 strain LAI)
Outline: as §4

[16] = tested on: clinically isolated HIV strain O; assay type: cell-based; settings: FR=EC50(mutant strain)/EC50(HIV-1 strain LAI)
Outline: as §4

[17] = tested on: clinically isolated HIV strain Q; experiment: Antiviral spectrum, cellular assay (fold resistance), strain Q; assay type: cell-based; settings: FR=EC50(mutant strain)/EC50(HIV-1 strain LAI)
Procedure: as §1, §2, §3

[18] = tested on: clinically isolated HIV strain B; experiment: Antiviral spectrum, cellular assay (fold resistance), strain B; assay type: cell-based; settings: FR=EC50(mutant strain)/EC50(HIV-1 strain LAI)
Procedure: as §1, §2, §3

HIV-1 strain LAI = experiment: Cellular anti-HIV assay in MT4 cells (MTT), wild type laboratory strain; assay type: cell-based; settings: read-out: EC50 value against HIV-1 strain LAI
Procedure: The compounds of the present invention were examined for anti-viral activity in a cellular assay. […] The cellular assay was performed according to the following procedure.
Cellular Assay Experimental Method:
as §1

[19] = Human immunodeficiency virus 1, 120 h, MT4 cells, five days, MTT
[20] = Human immunodeficiency virus 1, MT4, 120 h

Compound | fold resistance (FR), strain N [1] | fold resistance (FR), strain A [2] | fold resistance (FR), strain R [3] | fold resistance (FR), strain M [4] | fold resistance (FR), strain K [5] | fold resistance (FR), strain D [6] | fold resistance (FR), strain E [7] | fold resistance (FR), strain L [8] | fold resistance (FR), strain G [9] | fold resistance (FR), strain F (virus strain F (R13025)) | fold resistance (FR), strain S (virus strain S (R13080)) | fold resistance (FR), strain C [10] | fold resistance (FR), strain P [11] | fold resistance (FR), strain I [12] | fold resistance (FR), strain H [13] | fold resistance (FR), strain J [14] | fold resistance (FR), strain T [15] | fold resistance (FR), strain O [16] | fold resistance (FR), strain Q [17] | fold resistance (FR), strain B [18] | other results
CC(=O)Nc1nc2ccc(S(=O)(=O)N(CC(C)C)CC(O)C(Cc3ccccc3)NC(=O)OC3COC4OCCC34)cc2s1 (mixture of isomers) [Compound 1] | 1.0 | 0.4 | 0.7 | 0.5 | 0.4 | 0.7 | 0.6 | 0.2 | 0.3 | 0.8 | 1.0 | 0.7 | 0.2 | 0.8 | 0.9 | 0.5 | 5.1 | 0.4 | 0.8 | 0.3 | –
CC(C)CN(CC(O)C(Cc1ccccc1)NC(=O)OC1COC2OCCC12)S(=O)(=O)c1ccc2nc(NC(=O)CN(C)C)sc2c1 (mixture of isomers) [Compound 3] | 2.3 | 0.4 | 0.5 | – | – | 0.8 | 0.4 | 0.3 | 0.4 | 1.1 | 1.8 | 0.4 | 0.4 | 0.8 | 1.0 | – | 34.2 | 1.0 | 0.5 | – | –
CC(C)CN(CC(O)C(Cc1ccccc1)NC(=O)OC1COC2OCCC12)S(=O)(=O)c1ccc2nc(NC(=O)CN3CCCC3)sc2c1 (mixture of isomers) [Compound 7] | 0.5 | 0.2 | 0.4 | 0.1 | 0.3 | 0.5 | 0.3 | 0.1 | 0.2 | 0.5 | 2.0 | 0.5 | 0.1 | 0.5 | 0.5 | 0.4 | 12.4 | 0.4 | 0.4 | 0.3 | –
CC(=O)N(C)c1nc2ccc(S(=O)(=O)N(CC(C)C)CC(O)C(Cc3ccccc3)NC(=O)OC3COC4OCCC34)cc2s1 (mixture of isomers) [Compound 9] | 1.5 | 1.5 | 1.2 | 0.5 | 1.0 | 5.7 | 2.3 | 0.7 | 1.5 | 13.0 | 29.3 | 1.6 | 0.2 | 2.3 | 6.7 | 6.2 | 550.9 | 3.7 | 1.8 | 1.5 | –
CC(C)CN(CC(O)C(Cc1ccccc1)NC(=O)OC1COC2OCCC12)S(=O)(=O)c1ccc2nc(NC(=O)CN3CCOCC3)sc2c1 (mixture of isomers) [Compound 10] | 0.0 | 0.4 | 0.3 | 0.3 | 0.3 | 0.5 | 0.4 | 0.2 | 0.5 | 0.5 | 0.5 | 0.6 | 0.3 | 0.4 | 0.4 | 0.3 | 4.9 | 0.4 | 0.3 | 0.4 | –
CC(C)CN(CC(O)C(Cc1ccccc1)NC(=O)OC1COC2OCCC12)S(=O)(=O)c1ccc2nc(NC(=O)CN(C)C)sc2c1 (stereo not shown) [Compound 11] | 1.6 | 0.3 | 0.5 | 0.4 | 0.4 | 0.3 | – | 0.3 | 0.5 | 0.7 | 1.1 | 0.5 | 0.3 | 0.5 | 0.9 | 0.4 | 7.3 | 0.7 | 0.0 | 0.4 | EC50 (HIV-1 strain LAI; [19]): < 50 nM
CC(C)CN(CC(O)C(Cc1ccccc1)NC(=O)OC1COC2OCCC12)S(=O)(=O)c1ccc2nc(NCC[N+](C)(C)[O-])sc2c1 (stereo not shown) [Compound 27] | – | – | – | – | – | – | – | – | – | 1.4 | 5.1 | – | – | 1.3 | 1.2 | 0.7 | 5.4 | 0.6 | – | – | EC50 (HIV-1 strain LAI; [20]): > 500 nM
CC(=O)N(C)c1nc2ccc(S(=O)(=O)N(Cc3ccccn3)CC(O)C(Cc3ccccc3)NC(=O)OC3COC4OCCC34)cc2s1 (stereo not shown) [Compound 33] | – | – | – | – | – | – | – | – | – | 7.6 | 467.3 | – | – | 7.1 | 6.8 | 5.9 | 467.3 | 3.4 | – | – | EC50 (HIV-1 strain LAI; [19]): < 50 nM
CC(C)CN(CC(O)C(Cc1ccccc1)NC(=O)OC1COCC1N(C)C)S(=O)(=O)c1ccc2nc(NCCN(C)C)sc2c1 (stereo not shown) [Compound 44] | – | – | – | – | – | – | – | – | – | 80.2 | 89.3 | – | – | 7.5 | 29.4 | 29.5 | 89.3 | 11.2 | – | – | EC50 (HIV-1 strain LAI; [20]): 50 to 500 nM
CC(C)CN(CC(O)C(Cc1ccccc1)NC(=O)OC1CCOC1)S(=O)(=O)c1ccc2nc(NCCN(C)C)sc2c1 (stereo not shown) [Compound 56] | – | – | – | – | – | – | – | – | – | 33.1 | 67.1 | – | – | 3.2 | 4.6 | 2.8 | 509.6 | 2.1 | – | – | EC50 (HIV-1 strain LAI; [20]): < 50 nM
